{"source": "patent US9199935B2", "about": "“Pharmaceutically active piperidine derivatives” (Acetelion Pharmaceuticals Ltd., priority 2001, dated 2015)", "key": {"human recombinant GCS": {"molecular_target": "T1, human recombinant GCS (Homo sapiens, UniProt Q16739)", "T1 construct": "made in house; host or cells: insect cells", "T1 sequence (Q16739 1-394)": "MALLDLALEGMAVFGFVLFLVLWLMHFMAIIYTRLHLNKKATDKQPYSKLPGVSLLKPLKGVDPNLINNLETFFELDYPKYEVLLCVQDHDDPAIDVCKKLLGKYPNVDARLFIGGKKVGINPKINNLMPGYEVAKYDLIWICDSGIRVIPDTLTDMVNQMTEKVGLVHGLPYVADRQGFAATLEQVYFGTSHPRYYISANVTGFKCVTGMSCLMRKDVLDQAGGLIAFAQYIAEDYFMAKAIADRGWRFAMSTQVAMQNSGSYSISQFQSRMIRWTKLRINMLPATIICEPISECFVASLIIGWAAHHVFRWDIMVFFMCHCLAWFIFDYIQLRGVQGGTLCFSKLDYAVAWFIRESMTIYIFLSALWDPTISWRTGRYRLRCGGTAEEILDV", "assay": "Human GCS inhibition, recombinant enzyme expressed in insect cells", "format": "biochemical"}, "[1]": {"molecular_target": "Porcine intestinal lactase (Sus scrofa, UniProt F1S0D7)", "sequence (F1S0D7 840-1898)": "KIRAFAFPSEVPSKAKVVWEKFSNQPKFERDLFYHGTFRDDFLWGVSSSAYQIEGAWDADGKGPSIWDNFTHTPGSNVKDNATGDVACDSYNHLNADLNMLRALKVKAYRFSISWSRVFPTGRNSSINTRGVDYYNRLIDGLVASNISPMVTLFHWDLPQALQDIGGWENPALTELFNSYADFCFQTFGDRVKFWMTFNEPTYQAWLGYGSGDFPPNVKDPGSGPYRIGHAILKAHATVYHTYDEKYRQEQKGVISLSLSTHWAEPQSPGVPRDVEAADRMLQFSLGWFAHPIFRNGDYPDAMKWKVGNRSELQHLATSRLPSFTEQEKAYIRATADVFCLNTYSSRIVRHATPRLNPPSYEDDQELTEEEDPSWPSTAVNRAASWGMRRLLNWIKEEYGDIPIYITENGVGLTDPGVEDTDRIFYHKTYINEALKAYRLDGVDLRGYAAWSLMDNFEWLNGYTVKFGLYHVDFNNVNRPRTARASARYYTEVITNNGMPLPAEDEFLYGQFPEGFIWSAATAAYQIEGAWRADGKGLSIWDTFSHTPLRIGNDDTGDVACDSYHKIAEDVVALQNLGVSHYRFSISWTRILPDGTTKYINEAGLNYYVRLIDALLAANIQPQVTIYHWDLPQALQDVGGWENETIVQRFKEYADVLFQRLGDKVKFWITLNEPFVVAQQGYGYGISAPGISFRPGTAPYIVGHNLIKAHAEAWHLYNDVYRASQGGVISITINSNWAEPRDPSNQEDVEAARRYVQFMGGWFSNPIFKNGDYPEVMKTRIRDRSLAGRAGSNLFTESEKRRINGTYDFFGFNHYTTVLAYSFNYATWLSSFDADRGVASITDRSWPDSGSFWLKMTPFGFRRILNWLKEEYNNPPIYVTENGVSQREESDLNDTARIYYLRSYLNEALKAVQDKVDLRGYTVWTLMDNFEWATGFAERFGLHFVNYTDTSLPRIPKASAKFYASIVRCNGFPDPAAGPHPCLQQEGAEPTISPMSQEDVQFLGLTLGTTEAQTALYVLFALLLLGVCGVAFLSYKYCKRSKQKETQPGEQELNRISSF", "assay": "Porcine intestinal lactase inhibition", "format": "biochemical", "conditions": "read-out: Porcine intestinal lactase (Ki μM)"}, "glycolipid biosynthesis": {"system": "glycolipid biosynthesis", "conditions": "as disclosed in EP-A-0698012; cited from earlier work"}, "[2]": {"molecular_target": "Jack bean β-galactosidase", "assay": "Jack bean β-galactosidase inhibition", "format": "biochemical"}, "[3]": {"molecular_target": "T2, Mouse ceramide β-galactosidase (Mus musculus, UniProt P54818)", "T2 sequence (P54818 43-684)": "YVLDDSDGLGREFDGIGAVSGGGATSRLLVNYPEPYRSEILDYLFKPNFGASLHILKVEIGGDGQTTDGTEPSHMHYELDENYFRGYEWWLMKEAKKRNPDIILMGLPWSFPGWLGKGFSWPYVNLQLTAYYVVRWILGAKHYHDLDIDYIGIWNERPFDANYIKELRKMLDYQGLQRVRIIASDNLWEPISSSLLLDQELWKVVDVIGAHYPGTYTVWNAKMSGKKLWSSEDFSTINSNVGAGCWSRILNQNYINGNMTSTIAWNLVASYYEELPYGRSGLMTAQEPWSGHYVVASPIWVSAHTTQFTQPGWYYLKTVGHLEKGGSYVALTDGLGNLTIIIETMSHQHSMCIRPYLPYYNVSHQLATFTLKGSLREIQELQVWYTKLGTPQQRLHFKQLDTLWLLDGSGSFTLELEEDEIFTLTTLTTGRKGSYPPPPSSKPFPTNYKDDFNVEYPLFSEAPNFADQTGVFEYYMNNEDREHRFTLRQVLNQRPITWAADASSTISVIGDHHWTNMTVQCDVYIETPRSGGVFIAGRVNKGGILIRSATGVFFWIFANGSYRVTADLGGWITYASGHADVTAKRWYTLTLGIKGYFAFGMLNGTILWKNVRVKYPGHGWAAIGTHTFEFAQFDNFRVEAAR", "assay": "Mouse ceramide β-galactosidase inhibition", "format": "biochemical"}, "Human β-galactosidase": {"molecular_target": "T3, Human β-galactosidase (Homo sapiens, UniProt P16278)", "T3 sequence (P16278 29-677)": "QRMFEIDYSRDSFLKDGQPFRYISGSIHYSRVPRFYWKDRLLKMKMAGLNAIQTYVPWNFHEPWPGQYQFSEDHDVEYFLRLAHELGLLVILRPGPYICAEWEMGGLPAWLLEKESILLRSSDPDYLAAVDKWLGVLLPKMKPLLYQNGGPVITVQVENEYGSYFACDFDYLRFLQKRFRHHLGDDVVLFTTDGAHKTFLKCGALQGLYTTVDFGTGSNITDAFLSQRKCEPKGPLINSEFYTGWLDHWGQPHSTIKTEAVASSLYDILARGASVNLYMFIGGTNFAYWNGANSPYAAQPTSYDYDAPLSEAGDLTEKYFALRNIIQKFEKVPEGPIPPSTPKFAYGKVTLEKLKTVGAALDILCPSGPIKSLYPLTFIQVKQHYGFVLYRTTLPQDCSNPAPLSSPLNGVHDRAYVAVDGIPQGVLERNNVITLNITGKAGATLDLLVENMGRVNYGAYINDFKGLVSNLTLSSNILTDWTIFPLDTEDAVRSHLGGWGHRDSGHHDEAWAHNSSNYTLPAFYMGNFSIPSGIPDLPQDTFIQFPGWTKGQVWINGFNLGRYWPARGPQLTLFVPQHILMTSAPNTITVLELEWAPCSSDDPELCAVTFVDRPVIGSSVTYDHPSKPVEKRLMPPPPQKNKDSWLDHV", "assay": "Human β-galactosidase assay", "format": "biochemical", "description": "The glucosidase assays were performed as described (Biochemical Genetics, A Laboratory Manual, Oxford University Press) except that p-nitrophenyl linked substrates were used instead of methylumbelliferone linked substrates."}, "Human α-glucosidase": {"molecular_target": "Human α-glucosidase", "assay": "Human α-glucosidase assay, p-nitrophenyl linked substrates", "format": "biochemical"}}, "data": [{"smiles": "CCCCCN1CC(O)C(O)C(O)C1CO", "note": "[Example 3, 3,4,5-Piperidinetriol, 1-pentyl-2-(hydroxymethyl)-, (2S,3R,4R,5S)]", "values": [{"measurement": "IC50", "setting": "human recombinant GCS", "value": 4, "unit": "µM"}]}, {"smiles": "CCCCN1CC(O)C(O)C(O)C1CO", "note": "[Example 5, 3,4,5-Piperidinetriol, 1-butyl-2-hydroxymethyl)-, (2S,3S,4R,5S)]", "values": [{"measurement": "Ki", "setting": "[1]", "value": 8000, "unit": "µM"}]}, {"smiles": "CCCCN1C[C@@H](O)[C@H](O)[C@H](O)[C@@H]1C", "note": "[NB-DFJ]", "values": [{"measurement": "inhibition of glycolipid biosynthesis", "setting": "glycolipid biosynthesis", "value": "do not act as inhibitors"}]}, {"smiles": "CCCCN1C[C@H](O)[C@@H](O)[C@@H](O)[C@H]1CO", "note": "[NB-DGJ, N-butyldeoxygalactonojirimycin]", "values": [{"measurement": "IC50", "setting": "[2]", "value": 3.4, "unit": "µM"}, {"measurement": "IC50", "setting": "[3]", "value": 370, "unit": "µM"}, {"measurement": "Ki", "setting": "[1]", "value": 85, "unit": "µM"}, {"measurement": "Ki", "setting": "Human β-galactosidase", "value": 40, "unit": "µM"}]}, {"smiles": "CCCCN1C[C@@H](O)[C@@H](O)[C@H](O)[C@H]1CO", "note": "[NB-DMJ]", "values": [{"measurement": "inhibition of glycolipid biosynthesis", "setting": "glycolipid biosynthesis", "value": "do not act as inhibitors"}]}, {"smiles": "CCCCN1C[C@H](O)[C@@H](O)[C@H](O)[C@H]1CO", "note": "[NB-DNJ, N-butyldeoxynojirimycin]", "values": [{"measurement": "IC50", "setting": "Human α-glucosidase", "value": "< 20", "unit": "µM"}]}, {"smiles": "CCCCN1C[C@H](NC(C)=O)[C@@H](O)[C@H](O)[C@H]1CO", "note": "[NB-NAG]", "values": [{"measurement": "inhibition of glycolipid biosynthesis", "setting": "glycolipid biosynthesis", "value": "do not act as inhibitors"}]}]}
